Measured values reported in US20190292243A1, “PEPTIDES AND METHODS OF USE THEREOF” (Fred Hutchinson Cancer Research Center, priority 2016, published 2019).
Where two headings read alike, the source gives them in different places. Marks after values point to notes of the source that are not given here. Bridge positions count the residues as written; N and C are the ends. Ends that are not written are not given here. Peptide text beside a SMILES is read from it. * marks the point of attachment. Me2Gly = CN(C)CC(=O)*

How the values were obtained:
[1] = Procedure: (§1) This example describes analysis of the pharmacokinetics of a peptide of the disclosure. A ^14C radiolabeled peptide of SEQ ID NO: 15 (SEQ ID NO: 15-r) was administered to 6-10 week old female Harlan athymic mice at a dose of 2 μCi/33 nmol via intravenous administration, intraperitoneal administration, oral administration or subcutaneous administration. At each time point, urine was collected by massaging the abdomen and mice were subsequently euthanized by CO2 asphyxiation. Blood was collected by cardiac exsanguination following cessation of respiratory movement. Plasma was separated by centrifugation and frozen until further analysis. Radioactivity in biological samples (plasma or urine) was detected by liquid scintillation counting on a Beckman Scintillation counter at a read time of 10 minutes. For HPLC evaluation, urine and plasma samples were diluted 20 μl in 80 μl and analyzed on an Agilent analytical HPLC equipped with an inline Raytest scintillation detector. Pharmacokinetics analysis was performed using the PKSolver 2 compartment IV or extravascular bolus.
HPLC was used to separate peptide fragments and liquid scintillation counting was used to quantify the radioactive signal of intact peptides or peptide fragment. SEQ ID NO: 15-r was spiked in as a positive control for intact peptide and Glycine was spiked in as a negative control for metabolized peptide. […] SEQ ID NO: 15-r was spiked in as a positive control for intact peptide and Glycine was spiked in as a negative control for metabolized peptide. […] SEQ ID NO: 15-r was spiked in as a positive control for intact peptide and Glycine was spiked in as a negative control for metabolized peptide. […] SEQ ID NO: 15-r was spiked in as a positive control for intact peptide and Glycine was spiked in as a negative control for metabolized peptide.

[2] = Pharmacokinetics of radiolabeled peptide in plasma by liquid scintillation counting (PKSolver 2 compartment); assay type: in vivo, female Harlan athymic nude mice; design: AUC0-inf (area under the curve): unit not given here; conditions: 2 μCi/33 nmol
[3] = remark: listed apart in the source
Procedure: as §1
SEQ ID NO: 15-r was spiked in as a positive control for intact peptide and Glycine was spiked in as a negative control for metabolized peptide. […] HPLC was used to separate peptide fragments and liquid scintillation counting was used to quantify the radioactive signal of intact peptides or peptide fragment. […] SEQ ID NO: 15-r was spiked in as a positive control for intact peptide and Glycine was spiked in as a negative control for metabolized peptide. […] SEQ ID NO: 15-r was spiked in as a positive control for intact peptide and Glycine was spiked in as a negative control for metabolized peptide. […] SEQ ID NO: 15-r was spiked in as a positive control for intact peptide and Glycine was spiked in as a negative control for metabolized peptide.

HeLa cells = test: Uptake of peptide-AF647 conjugate in HeLa cells (fluorescence microscopy, flow cytometry, endocytosis inhibitors); assay type: cell-based; conditions: for effect of endocytic inhibitors on uptake of SEQ ID NO: 15-A: SEQ ID NO: 15-A at 4 μM, flow cytometry, pre-treatment of HeLa cells
Procedure: SEQ ID NO: 15-A and HIV-Tat-FITC, an HIV-Tat protein conjugated to a FITC fluorophore, were each dosed in HeLa cells at a concentration of 20 μM. The fluorescence image was taken on a Nikon Live microscope at 40× magnification, four hours after cells were dosed with SEQ ID NO: 15-A and HIV-Tat-FITC. The green fluorescence (FITC) and the red fluorescence (AF647) were located in different punctate regions, showing that the two molecules are localized in different vesicles.
Fluorescence was measured via flow cytometry and quantified to determine uptake of the peptide conjugate in cells.
SEQ ID NO: 15-A was dosed at a concentration of […] HIV-Tat-FITC was dosed at a concentration of 1 mM, and Dextran-Texas Red was dosed at a concentration of 25 mg/ml.

[4] = Folding of manufactured peptide variants (HPLC traces); assay type: physicochemical
Description: Generally, the NMR solution structures of related structural homologs can be used to inform mutational strategies that may improve the folding, stability, manufacturability, while maintaining a particular biological function. They can be used to predict the 3D pharmacophore of a group of structurally homologous scaffolds, as wells as to predict possible graft regions of related proteins to create chimeras with improved properties. The general strategy for producing homologs can include identification of a charged surface patch of a protein, mutation of critical amino acid positions and loops, and testing of sequences. This strategy can be used to design peptides with improved properties or to correct deleterious mutations that complicate folding and manufacturability. […] Accordingly, three amino acid positions (R11, R13, and R31) were chosen to be individually mutated to improve stability, yielding peptides of SEQ ID NO: 18, SEQ ID NO: 20, and SEQ ID NO: 25.
This example illustrates the modification of a function of a peptide. A peptide of SEQ ID NO: 15 was modified at positively charge patches to give a peptide of SEQ ID NO: 1 and a peptide of SEQ ID NO: 2. The modified peptides were expressed recombinantly. Mutations at positively charged patches of a peptide of SEQ ID NO: 15 were not well tolerated as indicated by the lack of folding purity indicated by the HPLC traces in FIG. 15.

[5] = IP, 3 hr, 0 = no intact peptide was measured

Molecule: CC(C)C[C@@H]1NC(=O)[C@H]([C@@H](C)O)NC(=O)[C@@H]2CSSC[C@@H]3NC(=O)[C@H]([C@@H](C)O)NC(=O)[C@H](CC(N)=O)NC(=O)[C@H](CSSC[C@@H](C(=O)N4CCC[C@H]4C(=O)N[C@@H](CC(N)=O)C(=O)N[C@@H](CCC(N)=O)C(=O)O)NC(=O)[C@H](C)NC(=O)[C@H](CCCNC(=N)N)NC1=O)NC(=O)[C@H](CCCNC(=N)N)NC(=O)[C@H](CC(=O)O)NC(=O)[C@H](CCCNC(=N)N)NC(=O)[C@H](Cc1ccccc1)NC(=O)[C@H]([C@@H](C)O)NC(=O)[C@H](CCCNC(=N)N)NC(=O)CNC(=O)[C@@H]1CCCN1C(=O)[C@H](CCC(=O)O)NC(=O)[C@@H](NC(=O)[C@H](CO)NC(=O)[C@H](CO)NC(=O)CN(C)C)CSSC[C@H](NC(=O)[C@H](CCCNC(=N)N)NC3=O)C(=O)NCC(=O)N[C@@H](C)C(=O)N[C@@H](CC(=O)O)C(=O)NCC(=O)N[C@@H](CCCNC(=N)N)C(=O)N[C@@H](CO)C(=O)N[C@@H](C)C(=O)N[C@@H](C)C(=O)N2 [SEQ ID NO: 15-r] (Me2Gly-SSCEPGRTFRDRCNTCRCGADGRSAACTLRACPNQ-OH; disulfide 3-18, 13-32, 16-27 (inferred); N-terminus and C-terminus assumed)
- percentage of AUC of intact peptide of the total radioactive signal (total AUC) in plasma ([1]; IP, 5 min): 94%
- percentage of AUC of intact peptide of the total radioactive signal (total AUC) in plasma ([1]; IP, 30 min): 100%
- percentage of AUC of intact peptide of the total radioactive signal (total AUC) in plasma ([1]; IP, 1 hr): 66%
- percentage of AUC of intact peptide of the total radioactive signal (total AUC) in plasma [1, 5]: 0%
- percentage of AUC of intact peptide of the total radioactive signal (total AUC) in plasma ([1]; IV, 5 min): 92%
- percentage of AUC of intact peptide of the total radioactive signal (total AUC) in plasma ([1]; IV, 30 min): 100%
- percentage of AUC of intact peptide of the total radioactive signal (total AUC) in plasma ([1]; PO, 8 hr): 45%
- percentage of AUC of intact peptide of the total radioactive signal (total AUC) in plasma ([1]; SC, 5 min): 100%
- percentage of AUC of intact peptide of the total radioactive signal (total AUC) in plasma ([1]; SC, 30 min): 88%
- percentage of AUC of intact peptide of the total radioactive signal (total AUC) in plasma ([1]; SC, 1 hr): 50%
- time by which intact peptide signal in plasma reached baseline ([1]; intraperitoneal injection): ≤ 3 h
- time by which intact peptide signal in plasma reached baseline ([1]; intravenous injection): ≤ 3 h
- intact peptide or breakdown products observed in plasma ([1]; oral administration): neither intact peptide or breakdown products of the peptide were observed in plasma
- AUC0-inf (area under the curve) ([2]; IP): 25.59
- CL/F (drug clearance over time) ([2]; IP): 1.28 nmol/(pmol/μl)/h
- Cmax (peak drug concentration) ([2]; IP): 5.23 pmol/µL
- AUC0-inf (area under the curve) ([2]; IV): 19.08
- CL/F (drug clearance over time) ([2]; IV): 1.73 nmol/(pmol/μl)/h
- Cmax (peak drug concentration) ([2]; IV): 33* pmol/μl
- AUC0-inf (area under the curve) ([2]; Oral): 46
- CL/F (drug clearance over time) ([2]; Oral): 0.53 nmol/(pmol/μl)/h
- Cmax (peak drug concentration) ([2]; Oral): 0.59 pmol/µL
- AUC0-inf (area under the curve) ([2]; SC): 171
- CL/F (drug clearance over time) ([2]; SC): 0.144 nmol/(pmol/μl)/h
- Cmax (peak drug concentration) ([2]; SC): 8.57 pmol/µL
- percentage of AUC of intact peptide of the total radioactive signal (total AUC) in urine ([3]; IP, 5 min): 60%
- percentage of AUC of intact peptide of the total radioactive signal (total AUC) in urine ([3]; IP, 30 min): 49%
- percentage of AUC of intact peptide of the total radioactive signal (total AUC) in urine [3, 5]: 0%
- percentage of AUC of intact peptide of the total radioactive signal (total AUC) in urine ([3]; IP, 24 hr, 0 = no intact peptide was measured): 0%
- percentage of AUC of intact peptide of the total radioactive signal (total AUC) in urine ([3]; IP, 48 hr, 0 = no intact peptide was measured): 0%
- percentage of AUC of intact peptide of the total radioactive signal (total AUC) in urine ([3]; IV, 5 min): 77%
- percentage of AUC of intact peptide of the total radioactive signal (total AUC) in urine ([3]; IV, 30 min): 47%
- percentage of AUC of intact peptide of the total radioactive signal (total AUC) in urine ([3]; IV, 1 hr): 43%
- percentage of AUC of intact peptide of the total radioactive signal (total AUC) in urine ([3]; IV, 3 hr, 0 = no intact peptide was measured): 0%
- percentage of AUC of intact peptide of the total radioactive signal (total AUC) in urine ([3]; IV, 8 hr, 0 = no intact peptide was measured): 0%
- percentage of AUC of intact peptide of the total radioactive signal (total AUC) in urine ([3]; IV, 24 hr, 0 = no intact peptide was measured): 0%
- percentage of AUC of intact peptide of the total radioactive signal (total AUC) in urine ([3]; PO, 3 hr, 0 = no intact peptide was measured): 0%
- percentage of AUC of intact peptide of the total radioactive signal (total AUC) in urine ([3]; PO, 8 hr, 0 = no intact peptide was measured): 0%
- percentage of AUC of intact peptide of the total radioactive signal (total AUC) in urine ([3]; PO, 48 hr, 0 = no intact peptide was measured): 0%
- percentage of AUC of intact peptide of the total radioactive signal (total AUC) in urine ([3]; SC, 5 min, 0 = no intact peptide was measured): 0%
- percentage of AUC of intact peptide of the total radioactive signal (total AUC) in urine ([3]; SC, 30 min, 0 = no intact peptide was measured): 0%
- percentage of AUC of intact peptide of the total radioactive signal (total AUC) in urine ([3]; SC, 1 hr, 0 = no intact peptide was measured): 0%
- percentage of AUC of intact peptide of the total radioactive signal (total AUC) in urine ([3]; SC, 8 hr, 0 = no intact peptide was measured): 0%
- percentage of AUC of intact peptide of the total radioactive signal (total AUC) in urine ([3]; SC, 48 hr, 0 = no intact peptide was measured): 0%
- time by which intact peptide in urine dropped to baseline ([3]; intraperitoneal injection): ≤ 3 h
- time by which intact peptide signal in urine reached baseline ([3]; intravenous injection): ≤ 3 h
- intact peptide observed in urine ([3]; oral administration): intact peptide was not observed in urine
- intact peptide observed in urine ([3]; subcutaneous administration): intact peptide was not observed in urine

Molecule: CCCCC[C@@H](O)[C@H]1C(=O)O[C@H](C)[C@@H](O)/C=C/C=C/C=C/C=C/C=C(\C)[C@@H](O)C[C@H](O)C[C@H](O)C[C@H](O)C[C@H](O)C[C@H](O)C[C@@H]1O [filipin]
- effect of endocytic inhibitors on uptake of SEQ ID NO: 15-A (HeLa cells): inhibit the uptake of SEQ ID NO: 15-A

Molecule: GSSCEPGRTFADACNTCRCGADGRSAACTLAACPNQ [SEQ ID NO: 2]
- folding of the manufactured peptide [4]: unable to fold

Molecule: GSSCEPGRTFEDECNTCRCGADGRSAACTLEACPNQ [SEQ ID NO: 1]
- folding of the manufactured peptide [4]: unable to fold

Molecule: GSSCEPGRTFEDRCNTCRCGADGRSAACTLRACPNQ [SEQ ID NO: 18]
- folding of the manufactured peptide [4]: Improved folding

Molecule: GSSCEPGRTFRDECNTCRCGADGRSAACTLRACPNQ [SEQ ID NO: 20]
- folding of the manufactured peptide [4]: Improved folding

Molecule: GSSCEPGRTFRDRCNTCRCGADGRSAACTLEACPNQ [SEQ ID NO: 25]
- folding of the manufactured peptide [4]: Improved folding

Molecule: SEQ ID NO: 15-A (GSSCEPGRTFRDRCNTCRCGADGRSAACTLRACPNQ; cysteine pairing not given here; also: conjugate A)
- internalization by HeLa cells (fluorescence image) (HeLa cells; 20 μM, four hours after dosing, 40×): internalized by HeLa cells

Molecule: methyl-beta-cyclodextrin [methyl-beta-cyclodextrin (MBCD)]
- inhibition of uptake of SEQ ID NO: 15-A relative to dextran and HIV-Tat (HeLa cells; 2 mM MBCD pre-treatment of HeLa cells): inhibits uptake of SEQ ID NO: 15-A to a greater extent than dextran, a fluid-phase marker, or HIV-Tat
- effect of endocytic inhibitors on uptake of SEQ ID NO: 15-A (HeLa cells): inhibit the uptake of SEQ ID NO: 15-A
